Laboratory results published in patent publication US20260007681A1, “INDOLE DERIVATIVES AS ESTROGEN RECEPTOR DEGRADERS” (REGENTS OF THE UNIVERSITY OF MICHIGAN, priority 2022, published 2026).

Molecular target: ER (Homo sapiens (Human), UniProt P03372)
Assay: Western blot analysis (Compounds B1-B278)
Type: cell-based
Conditions: ER degradation by traditional Western blot; DC50 classes
In short: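 Relative target-protein levels come from densitometry of immunoblots, normalized to GAPDH. Lysates from treated cells were prepared in RIPA buffer (pH 7.6) containing protease inhibitors, and equal protein amounts, checked by BCA, were separated on 10% gels and blotted onto PVDF.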

Sequence of ER (P03372 whole entry): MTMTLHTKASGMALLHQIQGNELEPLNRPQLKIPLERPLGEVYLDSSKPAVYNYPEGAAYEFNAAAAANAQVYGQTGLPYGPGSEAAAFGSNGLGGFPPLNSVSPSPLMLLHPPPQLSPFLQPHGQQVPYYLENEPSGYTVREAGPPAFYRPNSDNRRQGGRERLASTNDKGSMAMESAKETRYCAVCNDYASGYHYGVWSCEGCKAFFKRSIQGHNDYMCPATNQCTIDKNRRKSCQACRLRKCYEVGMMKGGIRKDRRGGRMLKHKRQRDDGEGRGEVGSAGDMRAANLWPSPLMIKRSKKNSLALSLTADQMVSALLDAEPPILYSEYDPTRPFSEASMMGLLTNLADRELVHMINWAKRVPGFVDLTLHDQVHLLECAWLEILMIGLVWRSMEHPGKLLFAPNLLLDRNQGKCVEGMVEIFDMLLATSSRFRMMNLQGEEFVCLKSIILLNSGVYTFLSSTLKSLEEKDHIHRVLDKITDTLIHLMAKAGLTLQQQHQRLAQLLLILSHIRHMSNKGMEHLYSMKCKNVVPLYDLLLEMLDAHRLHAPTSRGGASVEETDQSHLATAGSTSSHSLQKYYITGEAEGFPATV

Compound | Traditional Western Degradation Potency
C[C@@H]1Cc2c([nH]c3ccccc23)[C@@H](c2c(F)cc(C3CCN(C(=O)[C@H]4CC[C@H](N5Cc6cc7c(cc6C5)C(=O)N(C5CCC(=O)NC5=O)C7=O)CC4)CC3)cc2F)N1CC(F)F (stereo partly drawn) [Compound B106, 6-((1R,4r)-4-(4-(4-((1R,3R)-2-(2,2-difluoroethyl)-3-methyl-2,3,4,9-tetrahydro-1H-pyrido[3,4-b]indol-1-yl)-3,5-difluorophenyl)piperidine-1-carbonyl)cyclohexyl)-2-(2,6-dioxopiperidin-3-yl)-6,7-dihydropyrrolo[3,4-f]isoindole-1,3(2H,5H)-dione] | A (“A”: <10 nM)
COc1cc([C@H]2CC[C@@H](C(=O)N3CCC(N4Cc5cc6c(cc5C4)C(=O)N(C4CCC(=O)NC4=O)C6=O)CC3)CC2)ncc1[C@@H]1c2[nH]c3ccccc3c2C[C@@H](C)N1CC(F)F (stereo partly drawn) [Compound B107, 6-(1-((1S,4s)-4-(5-((1R,3R)-2-(2,2-difluoroethyl)-3-methyl-2,3,4,9-tetrahydro-1H-pyrido[3,4-b]indol-1-yl)-4-methoxypyridin-2-yl)cyclohexane-1-carbonyl)piperidin-4-yl)-2-(2,6-dioxopiperidin-3-yl)-6,7-dihydropyrrolo[3,4-f]isoindole-1,3(2H,5H)-dione] | C (“C”: >100 nM)
COc1cc([C@H]2CC[C@H](C(=O)N3CCC(N4Cc5cc6c(cc5C4)C(=O)N(C4CCC(=O)NC4=O)C6=O)CC3)CC2)ncc1[C@@H]1c2[nH]c3ccccc3c2C[C@@H](C)N1CC(F)F (stereo partly drawn) [Compound B108, 6-(1-((1R,4r)-4-(5-((1R,3R)-2-(2,2-difluoroethyl)-3-methyl-2,3,4,9-tetrahydro-1H-pyrido[3,4-b]indol-1-yl)-4-methoxypyridin-2-yl)cyclohexane-1-carbonyl)piperidin-4-yl)-2-(2,6-dioxopiperidin-3-yl)-6,7-dihydropyrrolo[3,4-f]isoindole-1,3(2H,5H)-dione] | C (“C”: >100 nM)
COc1cc([C@H]2CC[C@H](C(=O)N3CCC(N4Cc5cc6c(cc5C4)C(=O)N(C4CCC(=O)NC4=O)C6=O)CC3)CC2)ccc1[C@@H]1c2[nH]c3ccccc3c2C[C@@H](C)N1CC(F)F (stereo partly drawn) [Compound B111, 6-(1-((1R,4r)-4-(4-((1R,3R)-2-(2,2-difluoroethyl)-3-methyl-2,3,4,9-tetrahydro-1H-pyrido[3,4-b]indol-1-yl)-3-methoxyphenyl)cyclohexane-1-carbonyl)piperidin-4-yl)-2-(2,6-dioxopiperidin-3-yl)-6,7-dihydropyrrolo[3,4-f]isoindole-1,3(2H,5H)-dione] | B (“B”: 10-100 nM)
COc1nc(C2CCC(C(=O)N3CCC(N4Cc5cc6c(cc5C4)C(=O)N(C4CCC(=O)NC4=O)C6=O)CC3)CC2)ccc1[C@@H]1c2[nH]c3ccccc3c2C[C@@H](C)N1CC(F)F (stereo partly drawn) [Compound B113, 6-(1-(4-(5-((1R,3R)-2-(2,2-difluoroethyl)-3-methyl-2,3,4,9-tetrahydro-1H-pyrido[3,4-b]indol-1-yl)-6-methoxypyridin-2-yl)cyclohexane-1-carbonyl)piperidin-4-yl)-2-(2,6-dioxopiperidin-3-yl)-6,7-dihydropyrrolo[3,4-f]isoindole-1,3(2H,5H)-dione] | C (“C”: >100 nM)
C[C@@H]1Cc2c([nH]c3ccccc23)[C@@H](c2cnc(N3CC4(CCC(CN5Cc6cc7c(cc6C5)C(=O)N(C5CCC(=O)NC5=O)C7=O)CC4)C3)nc2)N1CC(C)(C)F (stereo partly drawn) [Compound B184, 2-(2,6-dioxopiperidin-3-yl)-6-((2-(5-((1R,3R)-2-(2-fluoro-2-methylpropyl)-3-methyl-2,3,4,9-tetrahydro-1H-pyrido[3,4-b]indol-1-yl)pyrimidin-2-yl)-2-azaspiro[3.5]nonan-7-yl)methyl) 6,7-dihydropyrrolo[3,4-f]isoindole-1,3(2H,5H)-dione] | C (“C”: >100 nM)
C[C@@H]1Cc2c([nH]c3ccccc23)[C@@H](c2cnc(N3CC4(CCC(CN5Cc6cc7c(cc6C5)C(=O)N(C5CCC(=O)NC5=O)C7=O)CC4)C3)nc2)N1CC(F)F (stereo partly drawn) [Compound B185, 6-((2-(5-((1R,3R)-2-(2,2-difluoroethyl)-3-methyl-2,3,4,9-tetrahydro-1H-pyrido[3,4-b]indol-1-yl)pyrimidin-2-yl)-2-azaspiro[3.5]nonan-7-yl)methyl)-2-(2,6-dioxopiperidin-3-yl)-6,7-dihydropyrrolo[3,4-f]isoindole-1,3(2H,5H)-dione] | C (“C”: >100 nM)

Continued, values first:

Traditional Western Degradation Potency | Compound
C (“C”: >100 nM) | C[C@@H]1Cc2c([nH]c3ccccc23)[C@@H](c2c(F)cc(CN3CCC4(CCC(CN5Cc6cc7c(cc6C5)C(=O)N(C5CCC(=O)NC5=O)C7=O)CC4)CC3)cc2F)N1CC(F)F (stereo partly drawn) [Compound B101, 6-((3-(4-((1R,3R)-2-(2,2-difluoroethyl)-3-methyl-2,3,4,9-tetrahydro-1H-pyrido[3,4-b]indol-1-yl)-3,5-difluorobenzyl)-3-azaspiro[5.5]undecan-9-yl)methyl)-2-(2,6-dioxopiperidin-3-yl)-6,7-dihydropyrrolo[3,4-f]isoindole-1,3(2H,5H)-dione]
C (“C”: >100 nM) | C[C@@H]1Cc2c([nH]c3ccccc23)[C@H](c2c(F)cc(CN3CCC4(CCC(CN5Cc6cc7c(cc6C5)C(=O)N(C5CCC(=O)NC5=O)C7=O)CC4)CC3)cc2F)N1CC(F)F (stereo partly drawn) [Compound B102, 6-((3-(4-((1S,3R)-2-(2,2-difluoroethyl)-3-methyl-2,3,4,9-tetrahydro-1H-pyrido[3,4-b]indol-1-yl)-3,5-difluorobenzyl)-3-azaspiro[5.5]undecan-9-yl)methyl)-2-(2,6-dioxopiperidin-3-yl)-6,7-dihydropyrrolo[3,4-f]isoindole-1,3(2H,5H)-dione]
C (“C”: >100 nM) | C[C@@H]1Cc2c([nH]c3ccccc23)[C@@H](c2c(F)cc(CN3CCC4(CCC(C(=O)N5Cc6cc7c(cc6C5)C(=O)N(C5CCC(=O)NC5=O)C7=O)CC4)CC3)cc2F)N1CC(F)F (stereo partly drawn) [Compound B103, 6-(3-(4-((1R,3R)-2-(2,2-difluoroethyl)-3-methyl-2,3,4,9-tetrahydro-1H-pyrido[3,4-b]indol-1-yl)-3,5-difluorobenzyl)-3-azaspiro[5.5]undecane-9-carbonyl)-2-(2,6-dioxopiperidin-3-yl)-6,7-dihydropyrrolo[3,4-f]isoindole-1,3(2H,5H)-dione]
C (“C”: >100 nM) | C[C@@H]1Cc2c([nH]c3ccccc23)[C@H](c2c(F)cc(CN3CCC4(CCC(C(=O)N5Cc6cc7c(cc6C5)C(=O)N(C5CCC(=O)NC5=O)C7=O)CC4)CC3)cc2F)N1CC(F)F (stereo partly drawn) [Compound B104, 6-(3-(4-((1S,3R)-2-(2,2-difluoroethyl)-3-methyl-2,3,4,9-tetrahydro-1H-pyrido[3,4-b]indol-1-yl)-3,5-difluorobenzyl)-3-azaspiro[5.5]undecane-9-carbonyl)-2-(2,6-dioxopiperidin-3-yl)-6,7-dihydropyrrolo[3,4-f]isoindole-1,3(2H,5H)-dione]
B (“B”: 10-100 nM) | C[C@@H]1Cc2c([nH]c3ccccc23)[C@@H](c2c(F)cc(C3CCN(C(=O)[C@H]4CC[C@@H](N5Cc6cc7c(cc6C5)C(=O)N(C5CCC(=O)NC5=O)C7=O)CC4)CC3)cc2F)N1CC(F)F (stereo partly drawn) [Compound B105, 6-((1S,4s)-4-(4-(4-((1R,3R)-2-(2,2-difluoroethyl)-3-methyl-2,3,4,9-tetrahydro-1H-pyrido[3,4-b]indol-1-yl)-3,5-difluorophenyl)piperidine-1-carbonyl)cyclohexyl)-2-(2,6-dioxopiperidin-3-yl)-6,7-dihydropyrrolo[3,4-f]isoindole-1,3(2H,5H)-dione]
C (“C”: >100 nM) | C[C@@H]1Cc2c([nH]c3ccccc23)[C@@H](c2ncc(C3=CCC(C(=O)N4CCC(N5Cc6cc7c(cc6C5)C(=O)N(C5CCC(=O)NC5=O)C7=O)CC4)CC3)cc2F)N1CC(F)F (stereo partly drawn) [Compound B109, 6-(1-(4-(6-((1S,3R)-2-(2,2-difluoroethyl)-3-methyl-2,3,4,9-tetrahydro-1H-pyrido[3,4-b]indol-1-yl)-5-fluoropyridin-3-yl)cyclohex-3-ene-1-carbonyl)piperidin-4-yl)-2-(2,6-dioxopiperidin-3-yl)-6,7-dihydropyrrolo[3,4-f]isoindole-1,3(2H,5H)-dione]
C (“C”: >100 nM) | C[C@@H]1Cc2c([nH]c3ccccc23)[C@@H](c2c(F)cc(C3CCC(C(=O)N4CCC(N5Cc6cc7c(cc6C5)C(=O)N(C5CCC(=O)NC5=O)C7=O)CC4)CC3)cc2F)N1CC(F)(F)CO (stereo partly drawn) [Compound B110, 6-(1-(4-(4-((1R,3R)-2-(2,2-difluoro-3-hydroxypropyl)-3-methyl-2,3,4,9-tetrahydro-1H-pyrido[3,4-b]indol-1-yl)-3,5-difluorophenyl)cyclohexane-1-carbonyl)piperidin-4-yl)-2-(2,6-dioxopiperidin-3-yl)-6,7-dihydropyrrolo[3,4-f]isoindole-1,3(2H,5H)-dione]
C (“C”: >100 nM) | COc1cc([C@H]2CC[C@@H](C(=O)N3CCC(N4Cc5cc6c(cc5C4)C(=O)N(C4CCC(=O)NC4=O)C6=O)CC3)CC2)ccc1[C@@H]1c2[nH]c3ccccc3c2C[C@@H](C)N1CC(F)F (stereo partly drawn) [Compound B112, 6-(1-((1S,4s)-4-(4-((1R,3R)-2-(2,2-difluoroethyl)-3-methyl-2,3,4,9-tetrahydro-1H-pyrido[3,4-b]indol-1-yl)-3-methoxyphenyl)cyclohexane-1-carbonyl)piperidin-4-yl)-2-(2,6-dioxopiperidin-3-yl)-6,7-dihydropyrrolo[3,4-f]isoindole-1,3(2H,5H)-dione]
C (“C”: >100 nM) | COc1cc(C2CCC(C(=O)N3CCC(N4Cc5cc6c(cc5C4)C(=O)N(C4CCC(=O)NC4=O)C6=O)CC3)CC2)cnc1[C@@H]1c2[nH]c3ccccc3c2C[C@@H](C)N1CC(F)F (stereo partly drawn) [Compound B115, 6-(1-(4-(6-((1S,3R)-2-(2,2-difluoroethyl)-3-methyl-2,3,4,9-tetrahydro-1H-pyrido[3,4-b]indol-1-yl)-5-methoxypyridin-3-yl)cyclohexane-1-carbonyl)piperidin-4-yl)-2-(2,6-dioxopiperidin-3-yl)-6,7-dihydropyrrolo[3,4-f]isoindole-1,3(2H,5H)-dione]
